“Also recorded” adds a separate entry of the source.
Columns and labels:
WT Nav1.5-α subunits [1] = molecular target: T1, WT Nav1.5-α subunits (Homo sapiens, UniProt Q14524); experiment: Whole-cell patch clamp, single voltage-pulse protocol (peak INa, conductance, fast inactivation) in transiently transfected HEK293 cells; format: cell-based; details: for Peak INa −20 mV: normalized peak INa, 37° C.; for Peak INa Slope: Hill curve slope; for IC50: Hill curve; for effect on fast inactivation kinetics: open-state voltages between −30 and +10 mV
T1 construct: expressed in transfected cells; host or cells: HEK293 (transient transfection)
Protocol: (§1) In one set of studies, we used a whole-cell patch clamp technique with single voltage-pulse protocols (FIGS. 3A-B) to characterize compounds ZINC38767171, ZINC39699427, ZINC40014265, ZINC64470729, ZINC64470737 and ZINC64470745. Whole-cell patch clamp was performed in extracellular solution containing (in mM): 140 NaCl, 4 KCl, 2 CaCl2, 1 MgCl2, and 10 HEPES (pH 7.4 adjusted with CsOH). The intracellular pipettes were dipped in dental wax and thermally polished to attain a resistance of 1.0-1.5 MΩ. The intracellular solutions contained (in mM): 130 CsF, 10 NaCl, 10 HEPES, and 10 EGTA titrated to pH 7.4. The six compounds, ZINC38767171, ZINC39699427, ZINC40014265, ZINC64470729, ZINC64470737 and ZINC64470745, chosen for electrophysiology characterization, ordered from MolPort (Easy compound ordering services), were diluted to 10 μM, 50 μM, and 100 μM in extracellular solution for biophysical assessment of channel gating.
(§2) The six compounds were screened against wild type (WT) Nav1.5-α subunits at the optimal physiological temperature of 37° C. Human Embryonic Kidney (HEK293) cells were transfected with WT Nav1.5-α subunits (transient transfections). The α subunits were co-expressed with the β1 subunit and eGFP (enhanced green fluorescence protein) in a 2:1:2 ratio, respectively.
Conductance was measured by a protocol that depolarized the membrane from −100 mV to +80 mV in increments of +5 mV for 19 ms. Prior to the test pulse, channels were allowed to recover from fast inactivation at −130 mV for 197 ms. The tested compounds had no effect on the conductance midpoint (FIGS. 6A-F).
At voltages greater than −50 mV, the fast inactivation T values were calculated from the mono-exponential fit to the decay of sodium current.

WT Nav1.5-α subunits [2] = molecular target: T1, WT Nav1.5-α subunits; experiment: Whole-cell patch clamp, use-dependence (slow inactivation) protocol at 6 Hz in transiently transfected HEK293 cells; format: cell-based; details: for UDI Block Slope: Hill curve slope; for IC50: Hill curve, use-dependence at 6 Hz, read-out: UDI Block IC50
Protocol: as §1, §2
Slow inactivation (SI) was indirectly determined by measuring use-dependence, which is a physiologically-relevant protocol. The protocol includes a series of 500 110 ms depolarizing pulses to 0 mV followed by a 55 ms-90 mV recovery pulse at a frequency 6 Hz. With repetitive depolarizations, Nav1.5 channels accumulate into slow inactivation.

T1 sequence (Q14524 whole entry): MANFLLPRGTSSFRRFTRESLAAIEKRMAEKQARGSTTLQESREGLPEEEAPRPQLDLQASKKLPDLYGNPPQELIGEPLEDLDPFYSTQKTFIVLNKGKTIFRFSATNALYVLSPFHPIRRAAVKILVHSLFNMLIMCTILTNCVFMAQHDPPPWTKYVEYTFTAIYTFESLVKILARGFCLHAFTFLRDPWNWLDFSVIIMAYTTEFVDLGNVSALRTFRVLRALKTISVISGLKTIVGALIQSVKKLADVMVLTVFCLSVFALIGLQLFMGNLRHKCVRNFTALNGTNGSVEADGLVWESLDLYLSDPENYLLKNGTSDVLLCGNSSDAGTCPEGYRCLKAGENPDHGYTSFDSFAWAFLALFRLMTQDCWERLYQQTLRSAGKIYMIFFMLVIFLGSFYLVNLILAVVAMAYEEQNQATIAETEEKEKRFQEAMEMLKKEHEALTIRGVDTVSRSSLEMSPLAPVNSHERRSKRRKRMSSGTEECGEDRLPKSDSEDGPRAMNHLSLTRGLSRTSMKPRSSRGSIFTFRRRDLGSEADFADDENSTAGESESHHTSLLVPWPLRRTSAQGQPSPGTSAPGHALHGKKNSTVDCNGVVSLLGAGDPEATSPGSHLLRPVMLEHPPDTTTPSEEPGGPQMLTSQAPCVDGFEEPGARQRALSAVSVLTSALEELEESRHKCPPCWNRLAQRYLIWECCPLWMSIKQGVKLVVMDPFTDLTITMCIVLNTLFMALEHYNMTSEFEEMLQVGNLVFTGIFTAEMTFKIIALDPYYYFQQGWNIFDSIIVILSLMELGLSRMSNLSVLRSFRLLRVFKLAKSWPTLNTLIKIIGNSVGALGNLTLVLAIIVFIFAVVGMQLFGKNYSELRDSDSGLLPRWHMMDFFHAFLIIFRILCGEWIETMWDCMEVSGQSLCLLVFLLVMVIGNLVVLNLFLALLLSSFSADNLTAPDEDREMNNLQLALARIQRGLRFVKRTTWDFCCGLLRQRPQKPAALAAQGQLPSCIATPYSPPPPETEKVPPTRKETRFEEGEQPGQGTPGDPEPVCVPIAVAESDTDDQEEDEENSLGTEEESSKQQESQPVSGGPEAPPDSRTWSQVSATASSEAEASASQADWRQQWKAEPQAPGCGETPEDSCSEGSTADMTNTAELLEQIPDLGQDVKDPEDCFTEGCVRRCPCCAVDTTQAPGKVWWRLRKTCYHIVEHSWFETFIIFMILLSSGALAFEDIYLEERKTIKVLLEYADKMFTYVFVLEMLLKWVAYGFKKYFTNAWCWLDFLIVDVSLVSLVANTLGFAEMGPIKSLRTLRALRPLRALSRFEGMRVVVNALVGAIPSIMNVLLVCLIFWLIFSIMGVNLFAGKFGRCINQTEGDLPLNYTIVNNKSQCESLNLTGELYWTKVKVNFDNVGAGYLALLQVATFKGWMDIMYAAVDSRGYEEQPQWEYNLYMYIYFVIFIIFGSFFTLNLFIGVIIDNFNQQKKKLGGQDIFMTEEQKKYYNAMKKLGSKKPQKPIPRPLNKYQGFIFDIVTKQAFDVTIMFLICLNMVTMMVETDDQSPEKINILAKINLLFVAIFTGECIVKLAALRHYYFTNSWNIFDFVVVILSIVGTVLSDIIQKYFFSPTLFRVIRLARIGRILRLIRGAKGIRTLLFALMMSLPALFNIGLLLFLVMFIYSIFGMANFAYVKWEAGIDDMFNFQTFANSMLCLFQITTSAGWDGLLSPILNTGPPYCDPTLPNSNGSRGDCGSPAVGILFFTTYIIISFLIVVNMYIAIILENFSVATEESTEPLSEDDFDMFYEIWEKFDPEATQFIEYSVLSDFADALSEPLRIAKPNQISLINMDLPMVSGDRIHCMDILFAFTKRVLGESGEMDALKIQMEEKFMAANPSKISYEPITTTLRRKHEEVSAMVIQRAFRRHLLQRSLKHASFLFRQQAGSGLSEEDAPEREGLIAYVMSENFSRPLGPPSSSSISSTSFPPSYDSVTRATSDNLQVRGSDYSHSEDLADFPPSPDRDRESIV

| Structure (SMILES) | % Block −20 mV (WT Nav1.5-α subunits [1]; 10 μM) [%] | fast inactivation onset time constant FI +10 mV (WT Nav1.5-α subunits [1]; 10 μM) [ms] | fast inactivation onset time constant FI −10 mV (WT Nav1.5-α subunits [1]; 10 μM) [ms] | fast inactivation onset time constant FI −30 mV (WT Nav1.5-α subunits [1]; 10 μM) [ms] | fast inactivation onset time constant FI −50 mV (WT Nav1.5-α subunits [1]; 10 μM) [ms] | Peak INa −20 mV (WT Nav1.5-α subunits [1]; 10 μM) | % Block −20 mV (WT Nav1.5-α subunits [1]; 50 μM) [%] | fast inactivation onset time constant FI +10 mV (WT Nav1.5-α subunits [1]; 50 μM) [ms] | fast inactivation onset time constant FI −10 mV (WT Nav1.5-α subunits [1]; 50 μM) [ms] | fast inactivation onset time constant FI −30 mV (WT Nav1.5-α subunits [1]; 50 μM) [ms] | fast inactivation onset time constant FI −50 mV (WT Nav1.5-α subunits [1]; 50 μM) [ms] | Peak INa −20 mV (WT Nav1.5-α subunits [1]; 50 μM) | % Block −20 mV (WT Nav1.5-α subunits [1]; 100 μM) [%] | fast inactivation onset time constant FI +10 mV (WT Nav1.5-α subunits [1]; 100 μM) [ms] | fast inactivation onset time constant FI −10 mV (WT Nav1.5-α subunits [1]; 100 μM) [ms] | fast inactivation onset time constant FI −30 mV (WT Nav1.5-α subunits [1]; 100 μM) [ms] | fast inactivation onset time constant FI −50 mV (WT Nav1.5-α subunits [1]; 100 μM) [ms] | Peak INa −20 mV (WT Nav1.5-α subunits [1]; 100 μM) | Peak INa Slope (WT Nav1.5-α subunits [1]) | IC50 (WT Nav1.5-α subunits [1]; single voltage-pulse protocol) [µM] | other results |
| --- | --- | --- | --- | --- | --- | --- | --- | --- | --- | --- | --- | --- | --- | --- | --- | --- | --- | --- | --- | --- | --- |
| COc1cccc(NS(=O)(=O)c2ccc3c(c2)=NC(=O)N=3)c1 [ZINC64470729, N-(3-methoxyphenyl)-2-oxo-benzimidazole-5-sulfonamide] | −22.68 | 0.26 ± 0.04 | 0.40 ± 0.08 | 0.70 ± 0.14 | 1.67 ± 0.21 | −0.75 ± 0.05 | −25.77 | 0.26 ± 0.02 | 0.40 ± 0.03 | 0.75 ± 0.07 | 1.97 ± 0.29 | −0.72 ± 0.06 | −38.14 | 0.23 ± 0.03 | 0.39 ± 0.02 | 0.76 ± 0.09 | 1.71 ± 0.22 | −0.60 ± 0.26 | 0.389 | 34.6 | effect on fast inactivation kinetics (WT Nav1.5-α subunits [1]): significantly decelerated; UDI Block Slope (WT Nav1.5-α subunits [2]): −0.194; IC50 (WT Nav1.5-α subunits [2]): 40.7 µM |
| CCc1ccccc1NS(=O)(=O)c1ccc2c(c1)=NC(=O)N=2 [ZINC64470737, N-(2-ethylphenyl)-2-oxo-benzimidazole-5-sulfonamide] | −22.45 | 0.31 ± 0.06 | 0.41 ± 0.07 | 0.66 ± 0.09 | 1.37 ± 0.31 | −0.76 ± 0.13 | −40.82 | 0.39 ± 0.02 | 0.64 ± 0.08 | 1.02 ± 0.13 | 1.88 ± 0.27 | −0.58 ± 0.10 | −74.49 | 0.49 ± 0.00 | 0.66 ± 0.00 | 0.96 ± 0.00 | 1.82 ± 0.00 | −0.25 ± 0.00 | 14.37 | 9.86 | effect on fast inactivation kinetics (WT Nav1.5-α subunits [1]): significantly decelerated; also recorded: decelerates fast inactivation kinetics the most; UDI Block Slope (WT Nav1.5-α subunits [2]): 0.710; IC50 (WT Nav1.5-α subunits [2]): 95.1 µM |
| Cc1cc(F)ccc1NS(=O)(=O)c1ccc2c(c1)=NC(=O)N=2 [ZINC64470745, N-(4-fluoro-2-methyl-phenyl)-2-oxo-benzimidazole-5-sulfonamide] | −23.71 | 0.27 ± 0.03 | 0.37 ± 0.03 | 0.66 ± 0.04 | 2.12 ± 0.34 | −0.74 ± 0.06 | −12.37 | 0.25 ± 0.02 | 0.37 ± 0.03 | 0.63 ± 0.05 | 1.75 ± 0.34 | −0.85 ± 0.08 | −24.74 | 0.28 ± 0.04 | 0.45 ± 0.07 | 0.81 ± 0.12 | 1.79 ± 0.20 | −0.73 ± 0.04 | 16.06 | 0.928 | plateau of drug block on sodium current (WT Nav1.5-α subunits [1]; attained at concentrations above 10 μM): −20%; effect on fast inactivation kinetics (WT Nav1.5-α subunits [1]): significantly decelerated; effect on peak INa (WT Nav1.5-α subunits [1]; single voltage-pulse protocol): blocked peak INa the least; also recorded: does not reduce peak Na at concentrations above 10 μM; UDI Block Slope (WT Nav1.5-α subunits [2]): 0.289; IC50 (WT Nav1.5-α subunits [2]): 901 µM |

From US20220125784A1, “METHODS AND COMPOUNDS FOR INHIBITION OF INACTIVATION OF VOLTAGE-GATED SODIUM CHANNELS” (SIMON FRASER UNIVERSITY, priority 2019, published 2022)
